The subject of assay [1] is BT474 [human breast carcinoma, overexpressing HER2 (ErbB2)]. Briefly: In vitro tumor cell proliferation assay (Cell Titer-Glo luminescent cell viability), BT474 cells. The class given is cell-based. Conditions: BT-474, 72 h, 72 hours of drug exposure, Cell Titer-Glo readout, read-out: IC50, anti-proliferative activity in BT474 cells. The text has this:
(§1) The utility of the compounds of the present invention can be illustrated, for example, by their activity in vitro in the in vitro tumor cell proliferation assay described below. The link between activity in tumor cell proliferation assays in vitro and anti-tumor activity in the clinical setting has been very well established in the art.
(§2) The following assay is one of the methods by which compound activity relating to treatment of the disorders identified herein can be determined.
(§3) The tumor cell proliferation assay used to test the compounds of the present invention involves a readout called Cell Titer-Glow® Luminescent Cell Viability Assay developed by Promega® (Cunningham, B A “A Growing Issue: Cell Proliferation Assays, Modern kits ease quantification of cell growth” The Scientist 2001, 15(13), 26, and Crouch, S P et al., “The use of ATP bioluminescence as a measure of cell proliferation and cytotoxicity” Journal of Immunological Methods 1993, 160, 81-88), that measures inhibition of cell proliferation. Generation of a luminescent signal corresponds to the amount of ATP present, which is directly proportional to the number of metabolically active (proliferating) cells.
(§4) A431 cells [human epidermoid carcinoma, ATCC # […], overexpressing HER1 (EGFR, ErbB1)] and BT474 [human breast carcinoma, ATCC # CRL-1555, overexpressing HER2 (ErbB2)] were plated at a density of 2.5×10^3 cells/well in 96 well black-clear bottom tissue culture plates in RPMI media with 10% Fetal Bovine Serum and incubated at 37° C. Twenty-four hours later, test compounds are added at a final concentration range from as high 100 μm to as low 64 pM depend on the activities of the tested compounds in serial dilutions at a final DMSO concentration of 0.1%. Cells were incubated for 72 hours at 37° C. in complete growth media after addition of the test compound. After 72 hours of drug exposure, the plates were equilibrated to room temperature for approximately 30 min. Then, using a Promega Cell Titer Glo Luminescent® assay kit, lysis buffer containing 100 microliters of the enzyme luciferase and its substrate, luciferin mixture, was added to each well. The plates were mixed for 2 min on orbital shaker to ensure cell lysis and incubated for 10 min at room temperature to stabilize luminescence signal. The samples were read on VICTOR 2 using Luminescence protocol, and analyzed with Analyze5 software to generate IC50 values.
(In general: ATP-based viability assays read luminescence as a measure of living cells.)

In assay [2] the test system is A431 cells [human epidermoid carcinoma, overexpressing HER1 (EGFR, ErbB1)]. Put plainly: In vitro tumor cell proliferation assay (Cell Titer-Glo luminescent cell viability), A431 cells. Conditions: A-431, 72 h, 72 hours of drug exposure, Cell Titer-Glo readout, read-out: IC50, anti-proliferative activity in A431 cells. Type of assay: cell-based.
Description: as §1, §2, §3, §4

From US7750017B2, “Heterocycles” (Bayer Schering Pharma Aktiengesellschaft, priority 2004, dated 2010) come the findings set out here.

Counter-ions that a name gives are not always drawn.

One may read the IC50 as the point on the concentration scale where inhibition reaches its midpoint. As to `Fc1cccc(COc2ccc(Nc3ncnc4sc5cc(CCN6CCSCC6)ccc5c34)cc2Cl)c1` [Example 15, N-{3-chloro-4-[(3-fluorobenzyl)oxy]phenyl}-7-(2-thiomorpholin-4-ylethyl)[1] benzothieno[2,3-d]pyrimidin-4-amine], the IC50 was at most 0.5 µM in assay [1] and at most 5 µM in assay [2].
The matching figures for `O=C(Cc1ccc2c(c1)sc1ncnc(Nc3ccc(OCc4ccccn4)c(Cl)c3)c12)N1CCOCC1` [Example 95, N-[3-chloro-4-(pyridin-2-ylmethoxy)phenyl]-7-(2-morpholin-4-yl-2-oxoethyl)[1]benzothieno[2,3-d]pyrimidin-4-amine]: at most 5 µM and at most 50 µM.
For `CN(C)[C@H]1CCN(C(=O)C(O)C(O)c2ccc3c(c2)sc2ncnc(Nc4ccc(OCc5cccc(F)c5)c(Cl)c4)c23)C1` (stereo partly drawn) [Example 59, 1-[4-({3-chloro-4-[(3-fluorobenzyl)oxy]phenyl}amino) [1]benzothieno[2,3-d]pyrimidin-7-yl]-3-[(3S)-3-(dimethylamino)pyrrolidin-1-yl]-3-oxopropane-1,2-diol], in that order: at most 5 µM and at most 50 µM.
For `CCN1CCN(C(=O)CCc2ccc3c(c2)sc2ncnc(Nc4ccc(OCc5cccc(F)c5)c(Cl)c4)c23)CC1` [Example 67, N-{3-chloro-4-[(3-fluorobenzyl)oxy]phenyl}-7-[3-(4-ethylpiperazin-1-yl)-3-oxopropyl][1]benzothieno[2,3-d] pyrimidin-4-amine], in that order: at most 5 µM and at most 50 µM.
Turning to `CCOC(=O)Cc1ccc2c(c1)sc1ncnc(Nc3ccc(OCc4ccccn4)c(Cl)c3)c12` [Example 81, ethyl {4-[3-Chloro-4-(pyridin-2-ylmethoxy)-phenylamino]-benzo [4,5]thieno[2,3-d]pyrimidin-7-yl}-acetate trifluoroacetate], the IC50 in assay [1] is at most 5 µM; in assay [2], at most 50 µM.
Consider `Oc1ccc2c(c1)sc1ncnc(Nc3ccc(OCc4ccccn4)c(Cl)c3)c12` [Example 110, 4-{[3-chloro-4-(pyridin-2-ylmethoxy)phenyl]amino}[1] benzothieno[2,3-d]pyrimidin-7-ol], for which the results for the IC50 in assay [1] and in assay [2] were at most 5 µM and at most 50 µM, respectively.
The matching figures for `CN1CCN(c2ccc3c(c2)sc2ncnc(Nc4ccc(OCc5ccccn5)c(Cl)c4)c23)CC1` [Example 77, N-[3-chloro-4-(pyridin-2-ylmethoxy)phenyl]-7-(4-methylpiperazin-1-yl)[1]benzothieno [2,3-d]pyrimidin-4-amine trifluoroacetate]: at most 0.5 µM and at most 5 µM.
For `COCCNCCc1ccc2c(c1)sc1ncnc(Nc3ccc(OCc4cccc(F)c4)c(Cl)c3)c12` [Example 9, N-{3-chloro-4-[(3-fluorobenzyl)oxy]phenyl}-7-{2-[(2-methoxyethyl)amino]ethyl}[1] benzothieno[2,3-d]pyrimidin-4-amine], in that order: at most 0.5 µM and at most 5 µM.
The matching figures for `CN1CCN(C(=O)/C=C/c2ccc3c(c2)sc2ncnc(Nc4ccc(OCc5cccc(F)c5)c(Cl)c4)c23)CC1` [Example 51, N-{3-chloro-4-[(3-fluorobenzyl)oxy]phenyl}-7-[(1E)-3-(4-methylpiperazin-1-yl)-3-oxoprop-1-en-1-yl][1]benzothieno [2,3-d]pyrimidin-4-amine]: at most 5 µM and at most 5 µM.
Take `O=C(Cc1ccc2c(c1)sc1ncnc(Nc3ccc(OCc4cscn4)c(Cl)c3)c12)N1CCOCC1` [Example 137, N-[3-chloro-4-(1,3-thiazol-4-ylmethoxy)phenyl]-7-(2-morpholin-4-yl-2-oxoethyl)[1]benzothieno [2,3-d]pyrimidin-4-amine]: the IC50 in assay [1] was at most 5 µM; in assay [2], at most 50 µM.
For `CN1CCN(C(=O)Cc2ccc3c(c2)sc2ncnc(Nc4ccc5c(cnn5Cc5cccc(F)c5)c4)c23)CC1` [Example 124, N-[1-(3-fluorobenzyl)-1H-indazol-5-yl]-7-[2-(4-methylpiperazin-1-yl)-2-oxoethyl][1]benzothieno[2,3-d] pyrimidin-4-amine], in that order: at most 0.5 µM and at most 5 µM.
